Entries after “also recorded” stand apart in the source; their conditions may differ.
What was measured:
[1] = biological target: T1, acidic pH binding sites (Mus musculus, UniProt P14824); assay: Specific binding of 125I-ligands to MEF cells at acidic pH
T1 sequence (P14824 2-673): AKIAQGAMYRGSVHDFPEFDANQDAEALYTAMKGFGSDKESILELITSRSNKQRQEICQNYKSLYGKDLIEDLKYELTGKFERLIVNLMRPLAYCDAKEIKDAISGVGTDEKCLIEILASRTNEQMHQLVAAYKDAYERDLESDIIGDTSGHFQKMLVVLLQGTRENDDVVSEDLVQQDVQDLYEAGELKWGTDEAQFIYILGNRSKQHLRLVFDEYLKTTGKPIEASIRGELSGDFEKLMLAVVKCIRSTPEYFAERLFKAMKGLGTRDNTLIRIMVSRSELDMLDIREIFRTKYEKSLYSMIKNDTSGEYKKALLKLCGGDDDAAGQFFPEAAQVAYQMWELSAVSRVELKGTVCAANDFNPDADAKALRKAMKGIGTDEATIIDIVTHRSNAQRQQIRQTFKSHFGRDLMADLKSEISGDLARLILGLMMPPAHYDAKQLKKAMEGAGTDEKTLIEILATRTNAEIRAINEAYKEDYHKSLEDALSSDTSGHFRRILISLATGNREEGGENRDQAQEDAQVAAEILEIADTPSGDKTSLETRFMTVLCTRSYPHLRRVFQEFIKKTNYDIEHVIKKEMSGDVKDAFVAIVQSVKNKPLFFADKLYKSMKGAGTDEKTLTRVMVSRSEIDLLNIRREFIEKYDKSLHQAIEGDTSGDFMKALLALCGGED

[2] = test system: Mv1Lu cells; assay: Internalization and degradation of cell surface-bound 125I-TGF-β1 or 125I-α2M*, Mv1Lu cells; format: cell-based, mink; conditions: 10 μM, pH 7.4, 1 hr at 37° C.
Method: After 1 hr at 37° C., the medium was collected and precipitated with 10% trichloroacetic acid (TCA). The TCA-soluble radioactive material in the medium represented the cellular degradation products of 125I-TGF-β1 or 125I-α2M*. The cells were then treated with trypsin (5 mg/ml), maintained for 20 min at 0° C. and centrifuged. The radioactivity in the supernate and cell pellets represented cell surface-bound and internalized 125I-TGF-β1 or 125I-α2M*, respectively. The experiments were performed in quadruplicate.
After 2.5 hr, cells were washed, then warmed to 37° C.

[3] = biological target: T2, LRP-1 (Mus musculus, UniProt Q91ZX7); assay: 125I-α2M* binding to MEF cells at pH 7.4
T2 construct: endogenous in cells; host or cells: MEF (mouse embryonic fibroblasts)

[4] = test system: Mv1Lu cells; assay: [methyl-3H] thymidine incorporation (DNA synthesis), Mv1Lu cells; format: cell-based, mink
[5] = test system: IRS-2; assay: 32P metabolic labeling and immunoprecipitation of IRS-2, Mv1Lu cells; format: cell-based, mink; conditions: Mv1Lu, IGFBP-3 1 μg/ml […] then factor 10 nM (TGF-β1 20 pM) 0.5 hr
[6] = test system: 32D/IR/IRS-2 cells; assay: [methyl-3H] thymidine incorporation, 32D/IR/IRS-2 cells; format: cell-based, murine; conditions: insulin 10 nM
[7] = test system: DR26 cells; assay: [methyl-3H] thymidine incorporation, DR26 cells; format: cell-based, mink; conditions: DR26 cells, in the presence of insulin
Method: (A,B) DR26 cells were incubated with various concentrations as indicated of IGFBP-3 in the absence (A) and presence (B) of various concentrations of insulin. After 18 hr at 37° C., the [methyl-^3H] thymidine incorporation into cellular DNA was determined. (C,D,E) Mv1Lu, DR26 and R1B cells metabolically labeled with ^[…]-orthophosphate for 2 hr were treated with IGFBP-3 (1:g/ml) or insulin (10 nM) (C). DR26 cells metabolically labeled with ^[…]-orthophosphate for 2 hr were treated with or without IGFBP-3 (1 μg/ml) in the presence of various concentrations of TGF-β1 as indicated (D). Mv1Lu cells expressing αIβI and αIβII chimeric receptors (MB102-16 and MB102-9 cells, respectively) metabolically labeled with ^[…]-orthophosphate for 2 hr were treated with or without IGFBP-3 (1 μg/ml) or GM-CSF (1 nM) (E). After 2 hr at 37° C. (in the absence of […]-orthophosphate in the medium), the ^[…]-labeled IRS-2 was immunoprecipitated and analyzed by 7.5% SDS-PAGE and autoradiography. […]
Mv1Lu cells were plated on 24-well clustered dishes and incubated with various concentrations of TGF-β1 or IGFBP-3 in DMEM containing 0.1% fetal calf serum. After incubation at 37° C. for 18 hr, the cells were pulse-labeled with 1 μCi of [methyl-^3H]thymidine at 37° C. for 2 hr and the [methyl-^3H] thymidine incorporation into cellular DNA was determined as described previously (59). […]

[8] = test system: IRS-2; assay: 32P metabolic labeling and immunoprecipitation of IRS-2, MB102-9 cells; format: cell-based, mink; conditions: MB102-9 cells (αIβII); IGFBP-3 1 μg/ml, GM-CSF 1 nM
[9] = test system: IRS-2; assay: 32P metabolic labeling and immunoprecipitation of IRS-2, MB102-16 cells; format: cell-based, mink; conditions: MB102-16 cells (αIβI); IGFBP-3 1 μg/ml, GM-CSF 1 nM
[10] = test system: LRP-1; assay: 125I-α2M* binding to Mv1Lu cells at pH 7.4; design: species or system mink; conditions: 10 μM protein, pH 7.4, Mv1Lu
[11] = biological target: acidic pH binding sites (Neogale vison, UniProt A0A8C7BSJ2); assay: Specific binding of 125I-ligands to Mv1Lu cells at acidic pH; design: species or system mink
[12] = biological target: T1, acidic pH binding sites; assay: Specific binding of 125I-ligands to PEA-13 cells at acidic pH; design: endogenous in cells; host or cells: PEA-13 (LRP-1-deficient mouse embryonic fibroblasts); conditions: 10 μM protein, pH 5.5, PEA-13
[13] = test system: TβR-V purified from bovine liver plasma membranes; assay: 125I-IGFBP-3 / 125I-TGF-β1 affinity labeling of purified TβR-V; format: binding; conditions: DSS, β1^25(41-65) 20 μM, RAP 10-40 μg/ml, α2M* 100 nM, lactoferrin 100 nM
[14] = test system: TβR-V; assay: 125I-ligand affinity labeling (binding and cross-linking) in Mv1Lu cells; design: species or system mink
Method: FIG. 2 depicts the effects of RAP on ^125I-IGFBP-3 (A) and ^125I-TGF-β1 binding (B) to TβR-V and on IGFBP-3-induced inhibition of DNA synthesis (C) in Mv1Lu cells. (A,B) Cells were incubated with ^125I-IGFBP-3 (10 nM) or ^125I-TGF-β1 (0.1 nM) in the presence of various concentrations of RAP as indicated. After 2.5 hr at 0° C., the ^125I-IGFBP-3-TβR-V complex or ^125I-TGF-β1-TGF-β receptor complexes were cross-linked by DSS and analyzed by autoradiography. The relative intensity of the ^125I-IGFBP-3-TβR-V complex or ^125I-TGF-β1-TGF-β receptor complex on the dried gel was quantified by a PhosphoImager. The arrow indicates the location of the ^125I-TGF-β-TβR-V complex or the ^125I-IGFBP-3-TβR-V complex. The bracket indicates the locations of the ^125I-TGF-β1-TβR-III and -TβR-II complexes. The ^125I-TGF-β1-TβR-I complex co-migrated with the dye front. The ^125I-TGF-β1-TβR-II complex can be seen upon longer time exposure of the autoradiogram. (C) Cells were incubated with various concentrations, as indicated, of IGFBP-3 and GST-RAP (100 μg/ml). […] After further incubation for 10 hr, the DNA synthesis of cells was determined by measuring [methyl-^3H] thymidine incorporation into cellular DNA. […]
Mv1Lu cells are a well-established model system for investigating TGF-β activities and receptor functions. […] After further incubation for 10 hr, DNA synthesis of the cells was determined.

Sequence of acidic pH binding sites (Neogale vison, UniProt A0A8C7BSJ2) (A0A8C7BSJ2 entry or part of it): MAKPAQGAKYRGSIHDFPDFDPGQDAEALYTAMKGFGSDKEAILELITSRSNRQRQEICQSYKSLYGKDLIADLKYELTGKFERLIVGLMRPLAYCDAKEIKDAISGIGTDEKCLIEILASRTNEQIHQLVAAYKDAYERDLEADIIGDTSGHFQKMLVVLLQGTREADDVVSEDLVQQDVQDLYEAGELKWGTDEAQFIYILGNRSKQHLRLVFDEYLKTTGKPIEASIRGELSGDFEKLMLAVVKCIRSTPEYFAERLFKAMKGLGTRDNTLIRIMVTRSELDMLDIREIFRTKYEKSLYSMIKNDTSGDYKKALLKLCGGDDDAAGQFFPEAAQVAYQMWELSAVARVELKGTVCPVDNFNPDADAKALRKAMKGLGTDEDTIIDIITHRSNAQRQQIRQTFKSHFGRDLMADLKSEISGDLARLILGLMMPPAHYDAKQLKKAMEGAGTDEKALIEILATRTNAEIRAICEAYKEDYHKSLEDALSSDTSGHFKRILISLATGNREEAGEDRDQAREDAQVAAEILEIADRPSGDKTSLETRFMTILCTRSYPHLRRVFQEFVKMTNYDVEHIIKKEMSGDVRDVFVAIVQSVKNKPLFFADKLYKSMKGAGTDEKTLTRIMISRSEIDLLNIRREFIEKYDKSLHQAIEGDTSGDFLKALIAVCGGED
T2 sequence (Q91ZX7 20-4545): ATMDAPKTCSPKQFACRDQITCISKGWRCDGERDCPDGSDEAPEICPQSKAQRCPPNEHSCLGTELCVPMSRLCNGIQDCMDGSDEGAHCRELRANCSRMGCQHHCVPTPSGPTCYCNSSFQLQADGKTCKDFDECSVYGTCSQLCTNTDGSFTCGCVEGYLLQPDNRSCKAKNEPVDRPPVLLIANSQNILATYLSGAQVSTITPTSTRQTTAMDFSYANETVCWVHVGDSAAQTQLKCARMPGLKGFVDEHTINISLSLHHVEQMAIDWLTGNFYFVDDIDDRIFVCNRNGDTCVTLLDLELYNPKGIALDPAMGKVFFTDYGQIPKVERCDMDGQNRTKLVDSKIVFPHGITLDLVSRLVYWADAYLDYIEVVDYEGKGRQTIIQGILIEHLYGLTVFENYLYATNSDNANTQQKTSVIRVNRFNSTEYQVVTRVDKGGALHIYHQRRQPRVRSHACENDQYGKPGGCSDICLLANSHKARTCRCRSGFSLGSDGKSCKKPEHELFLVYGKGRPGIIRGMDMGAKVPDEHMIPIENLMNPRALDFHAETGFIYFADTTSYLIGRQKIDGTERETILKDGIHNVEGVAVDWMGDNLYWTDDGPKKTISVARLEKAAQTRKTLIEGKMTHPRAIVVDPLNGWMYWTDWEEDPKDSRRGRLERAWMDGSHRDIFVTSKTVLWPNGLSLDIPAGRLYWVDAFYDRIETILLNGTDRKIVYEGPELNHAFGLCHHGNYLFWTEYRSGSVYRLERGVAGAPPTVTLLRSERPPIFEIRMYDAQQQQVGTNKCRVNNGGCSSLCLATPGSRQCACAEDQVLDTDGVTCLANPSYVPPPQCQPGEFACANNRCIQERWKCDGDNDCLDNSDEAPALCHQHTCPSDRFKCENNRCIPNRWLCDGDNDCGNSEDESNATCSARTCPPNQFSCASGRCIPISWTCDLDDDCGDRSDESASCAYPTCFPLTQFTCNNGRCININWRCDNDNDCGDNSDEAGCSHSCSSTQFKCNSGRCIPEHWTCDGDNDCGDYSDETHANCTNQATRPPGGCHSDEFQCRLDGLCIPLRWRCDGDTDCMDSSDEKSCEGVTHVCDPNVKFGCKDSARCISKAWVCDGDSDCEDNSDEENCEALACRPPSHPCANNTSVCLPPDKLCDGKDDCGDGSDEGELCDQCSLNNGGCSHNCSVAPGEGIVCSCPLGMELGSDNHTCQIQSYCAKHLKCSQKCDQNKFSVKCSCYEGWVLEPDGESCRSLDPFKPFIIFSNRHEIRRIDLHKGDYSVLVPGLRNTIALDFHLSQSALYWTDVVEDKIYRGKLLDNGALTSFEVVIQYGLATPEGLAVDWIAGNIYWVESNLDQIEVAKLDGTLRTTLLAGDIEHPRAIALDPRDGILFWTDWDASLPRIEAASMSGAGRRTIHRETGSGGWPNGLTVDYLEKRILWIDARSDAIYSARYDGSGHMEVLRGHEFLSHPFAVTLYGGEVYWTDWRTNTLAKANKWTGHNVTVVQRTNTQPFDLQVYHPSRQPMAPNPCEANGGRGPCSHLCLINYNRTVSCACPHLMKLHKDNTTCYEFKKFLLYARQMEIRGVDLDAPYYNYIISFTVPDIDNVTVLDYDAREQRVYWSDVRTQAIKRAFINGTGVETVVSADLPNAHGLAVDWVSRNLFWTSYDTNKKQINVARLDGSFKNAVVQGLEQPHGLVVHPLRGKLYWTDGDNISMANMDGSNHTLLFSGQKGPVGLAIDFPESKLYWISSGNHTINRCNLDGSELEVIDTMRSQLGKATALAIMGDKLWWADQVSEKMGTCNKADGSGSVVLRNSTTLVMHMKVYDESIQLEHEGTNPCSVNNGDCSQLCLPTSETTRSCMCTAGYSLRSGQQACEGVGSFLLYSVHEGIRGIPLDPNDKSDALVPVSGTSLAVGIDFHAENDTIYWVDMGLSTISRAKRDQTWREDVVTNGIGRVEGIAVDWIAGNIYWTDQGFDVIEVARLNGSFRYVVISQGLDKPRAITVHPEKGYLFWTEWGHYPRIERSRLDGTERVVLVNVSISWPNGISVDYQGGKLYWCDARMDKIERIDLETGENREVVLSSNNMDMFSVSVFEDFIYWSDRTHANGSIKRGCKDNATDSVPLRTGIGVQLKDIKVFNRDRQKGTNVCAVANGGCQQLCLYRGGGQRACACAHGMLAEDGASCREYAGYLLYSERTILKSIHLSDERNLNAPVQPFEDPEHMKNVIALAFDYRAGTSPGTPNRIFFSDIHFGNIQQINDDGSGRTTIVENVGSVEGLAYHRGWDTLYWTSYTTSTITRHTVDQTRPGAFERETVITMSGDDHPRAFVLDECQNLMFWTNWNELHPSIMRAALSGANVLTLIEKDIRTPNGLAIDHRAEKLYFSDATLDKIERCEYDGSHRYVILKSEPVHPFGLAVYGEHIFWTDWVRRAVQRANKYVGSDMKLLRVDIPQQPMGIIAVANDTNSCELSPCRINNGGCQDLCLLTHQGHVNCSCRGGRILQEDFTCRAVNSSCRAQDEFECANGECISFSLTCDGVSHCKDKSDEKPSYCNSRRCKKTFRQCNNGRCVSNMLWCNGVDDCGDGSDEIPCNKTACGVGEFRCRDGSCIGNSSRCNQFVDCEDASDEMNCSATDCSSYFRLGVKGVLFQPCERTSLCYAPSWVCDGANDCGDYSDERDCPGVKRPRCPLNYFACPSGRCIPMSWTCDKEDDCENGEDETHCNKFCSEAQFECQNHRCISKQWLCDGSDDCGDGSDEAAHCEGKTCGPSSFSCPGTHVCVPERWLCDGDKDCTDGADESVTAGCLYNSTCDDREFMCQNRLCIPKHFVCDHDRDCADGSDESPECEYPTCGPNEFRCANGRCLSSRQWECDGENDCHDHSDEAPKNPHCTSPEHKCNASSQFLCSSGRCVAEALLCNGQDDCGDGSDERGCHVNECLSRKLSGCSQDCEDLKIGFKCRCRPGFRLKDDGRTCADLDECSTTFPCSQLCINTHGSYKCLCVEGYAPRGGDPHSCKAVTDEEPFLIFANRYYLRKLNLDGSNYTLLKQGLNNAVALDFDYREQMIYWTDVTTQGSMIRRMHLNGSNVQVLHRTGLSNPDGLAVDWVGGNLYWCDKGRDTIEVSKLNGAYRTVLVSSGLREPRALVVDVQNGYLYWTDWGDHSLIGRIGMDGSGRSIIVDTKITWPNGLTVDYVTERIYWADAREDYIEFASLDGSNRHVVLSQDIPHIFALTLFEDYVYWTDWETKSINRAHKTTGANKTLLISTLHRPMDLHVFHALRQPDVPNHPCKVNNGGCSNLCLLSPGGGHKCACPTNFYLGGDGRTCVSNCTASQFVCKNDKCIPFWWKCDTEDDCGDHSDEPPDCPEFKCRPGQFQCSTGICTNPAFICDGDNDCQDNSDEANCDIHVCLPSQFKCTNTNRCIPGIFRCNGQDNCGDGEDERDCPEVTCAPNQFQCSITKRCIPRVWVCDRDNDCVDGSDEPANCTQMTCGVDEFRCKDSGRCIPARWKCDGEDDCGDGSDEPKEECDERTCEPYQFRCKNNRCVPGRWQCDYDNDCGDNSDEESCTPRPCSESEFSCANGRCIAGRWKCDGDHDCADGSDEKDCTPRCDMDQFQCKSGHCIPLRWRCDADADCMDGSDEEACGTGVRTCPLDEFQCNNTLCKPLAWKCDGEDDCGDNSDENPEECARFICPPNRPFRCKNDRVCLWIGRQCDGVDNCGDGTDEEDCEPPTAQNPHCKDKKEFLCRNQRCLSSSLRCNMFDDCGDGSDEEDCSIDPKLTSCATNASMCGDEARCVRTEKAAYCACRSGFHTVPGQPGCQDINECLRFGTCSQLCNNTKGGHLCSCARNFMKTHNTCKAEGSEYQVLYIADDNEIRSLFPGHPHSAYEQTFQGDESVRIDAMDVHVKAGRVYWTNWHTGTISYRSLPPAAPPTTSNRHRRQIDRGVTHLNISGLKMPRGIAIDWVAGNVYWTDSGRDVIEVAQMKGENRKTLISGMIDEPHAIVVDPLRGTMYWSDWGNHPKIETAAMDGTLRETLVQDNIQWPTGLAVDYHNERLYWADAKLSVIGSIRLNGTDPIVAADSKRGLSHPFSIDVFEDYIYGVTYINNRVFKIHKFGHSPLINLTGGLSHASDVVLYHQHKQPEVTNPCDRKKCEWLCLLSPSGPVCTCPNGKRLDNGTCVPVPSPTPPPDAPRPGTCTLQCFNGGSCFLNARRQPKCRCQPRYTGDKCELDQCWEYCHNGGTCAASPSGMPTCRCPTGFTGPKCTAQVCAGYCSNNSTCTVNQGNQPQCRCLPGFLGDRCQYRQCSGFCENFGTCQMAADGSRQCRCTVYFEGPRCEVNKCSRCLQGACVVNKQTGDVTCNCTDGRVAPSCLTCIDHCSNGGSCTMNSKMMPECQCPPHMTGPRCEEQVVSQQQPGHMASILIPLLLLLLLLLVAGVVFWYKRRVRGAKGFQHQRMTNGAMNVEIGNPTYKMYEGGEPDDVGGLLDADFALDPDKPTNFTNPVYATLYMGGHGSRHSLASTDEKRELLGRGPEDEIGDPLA

CC(CN1c2ccccc2Sc2ccccc21)N(C)C (centres unmarked) [promethazine, reference compound]
Inhibition of ^125I-α2M* binding to cells ([1]; MEF cells, pH 5.5, verapamil and W-5 at 100 μM): not effective | Degradation of cell surface-bound ^125I-TGF-β1 or ^125I-α2M* [2]: did not exhibit any significant effect | Degradation of cell surface-bound ^125I-TGF-β1 or ^125I-α2M* ([2]; listed as Promethazine): ineffective | Inhibition of ^125I-α2M* binding ([3]; MEF cells, pH 7.4): almost as effective as trifluoperazine and fluphenazine

insulin: insulin [reference compound]
Blocking of IGFBP-3-induced growth inhibition ([4]; Mv1Lu cells): completely blocked | Effect alone on TGF-β1-induced inhibition of DNA synthesis ([4]; insulin 10 nM or cyclic RGD peptide 0.01 μg/ml alone): did not block; also recorded: Neither insulin (10 nM) nor the cyclic RGD peptide (0.01 μg/ml) alone affected | Blocking of IGFBP-3-induced specific dephosphorylation of IRS-2 by growth factors/cytokines [5]: blocked | Effect on IGFBP-3-induced growth inhibition [6]: capable of blocking | Effect on TGF-β1-induced growth inhibition [6]: partially reversing | Reversal of IGFBP-3 inhibition of DNA synthesis [7]: completely reversed

OCCN1CCN(CCCN2c3ccccc3Sc3ccc(C(F)(F)F)cc32)CC1 [fluphenazine]
Degradation of cell surface-bound ^125I-TGF-β1 or ^125I-α2M* [2]: completely inhibits

GM-CSF: granulocyte/macrophage colony-stimulating factor
Specific dephosphorylation (mobility change) of IRS-2 [8]: induce moderate specific dephosphorylation | Specific dephosphorylation (mobility change) of IRS-2 [9]: only induced specific dephosphorylation (electrophoretic mobility change) of IRS-2 in MB102-9 cells

transferrin: human transferrin
Specific binding of ^125I-α2M* ([1]; 10 μM protein, pH 5.5, MEF): completely blocked | ^125I-α2M* binding [10]: did not have a significant effect | ^125I-α2M* binding ([3]; 10 μM protein, pH 7.4, MEF): did not have a significant effect | Specific binding of ^125I-α2M* ([11]; 10 μM protein, pH 5.5, Mv1Lu): completely blocked | IC50 ([11]; Mv1Lu cells, pH 5 or 6, read-out: IC50, inhibition of ^125I-α2M* binding to cells): ~500 nM | Specific binding of ^125I-α2M* [12]: completely blocked

RAP: receptor-associated protein, an LRP antagonist which blocks binding of all known ligands to LRP
^125I-TGF-β1 binding to purified TβR-V ([13]; 0.1 nM 125I-TGF-β1, […] 0° C.): appeared to inhibit | ^125I-IGFBP-3 binding to purified TβR-V ([13]; 10 nM 125I-IGFBP-3, […] 0° C.): appeared to inhibit | ^125I-TGF-β1 binding to TβR-V and TβR-III ([14]; 0.1 nM 125I-TGF-β1): only partially inhibited | IC50, inhibition of ^125I-IGFBP-3 binding to TβR-V ([14]; 10 nM 125I-IGFBP-3): ~5 µg/mL

From patent US7741283B2, “Compositions and methods for inhibiting cell proliferation” (St. Louis University, priority 2003, dated 2010)
